# Measurements published in US8802664B2 (Bioproject, priority 2010, dated 2014).
# Target: T1, human H4 receptor (Homo sapiens, UniProt Q9H3N8)
# T1 construct: expressed in transfected cells
# Assay: [3H]Histamine binding on membranes of CHO cells stably expressing human H4 receptor
# In short: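 Nonspecific signal was taken as that remaining with 10 μM JNJ 7777120 present. Assays contained 20 μg CHO-derived hH4 membrane protein in Tris/HCl–EDTA buffer (pH 7.4) and were terminated on polyethyleneimine-soaked filters, with bound tritium quantified by scintillation.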
row,Ki or IC50 activity class [µM],Structure (SMILES)
1,< 0.3,"CN1CCC(OC(c2cccc(-c3cccc(N)c3)c2)c2nc3ccccc3[nH]2)CC1 (centres unmarked) [Example 87, 3′-[(1H-benzimidazol-2-yl)(1-methylpiperidin-4-yloxy)methyl]biphenyl-3-ylamine]"
2,< 0.03,CN1CCC(COC(c2cccc(Br)c2)c2nc3ccccc3s2)C1 (centres unmarked) [Example 465]
3,< 0.3,"C=CCCCOc1cccc(C(NC2CCN(C)CC2)c2nc3ccccc3[nH]2)c1 (centres unmarked) [Example 135, [(1H-benzimidazol-2-yl)(3-pent-4-enyloxyphenyl)methyl](1-methylpiperidin-4-yl)amine]"
4,< 0.3,"Cc1ccc(C(OC2CCN(C)CC2)c2nc3ccccc3s2)cc1 (centres unmarked) [Example 7, 2-[(1-methylpiperidin-4-yloxy)-p-tolylmethyl]benzothiazole]"
5,< 0.03,"CSc1cccc(C(NC2CCN(C)CC2)c2nc3ccccc3s2)c1 (centres unmarked) [Example 111, [benzothiazol-2-yl(3-methylsulfanylphenyl)methyl](1-methylpiperidin-4-yl)amine]"
6,< 0.03,"CN1CCC(OC(c2nc3ccccc3[nH]2)c2cc(I)ccc2F)CC1 (centres unmarked) [Example 425, 2-[(2-fluoro-5-iodo-phenyl)(1-methylpiperidin-4-yloxy)methyl]-1H-benzimidazole]"
7,< 0.03,"CN1CCC(OC(c2cccc(OCCCCCN)c2)c2nc3ccccc3[nH]2)CC1 (centres unmarked) [Example 400, 5-{3-[(1H-benzimidazol-2-yl)(1-methylpiperidin-4-yloxy)methyl]phenoxy}pentylamine]"
8,< 1,"COc1ccc(C(OC2CCN(C)CC2)c2nc3ccccc3s2)cc1 (centres unmarked) [Example 14, 2-[(4-methoxyphenyl)(1-methylpiperidin-4-yloxy)methyl]benzothiazole]"
9,< 0.3,"CSc1cccc(-c2cccc(C(OC3CCN(C)CC3)c3nc4ccccc4[nH]3)c2)c1 (centres unmarked) [Example 116, 2-[(1-methylpiperidin-4-yloxy)(3′-methylsulfanylbiphenyl-3-yl)methyl]-1H-benzimidazole]"
10,< 0.3,"CN1CCC(OC(c2cccc(C#CC3CN(C(=N)N)C3)c2)c2nc3ccccc3[nH]2)CC1 (centres unmarked) [Example 426, 3-{3-[(1H-benzimidazol-2-yl)(1-methylpiperidin-4-yloxy)methyl]phenylethynyl}azetidine-1-carboxamidine]"
11,< 0.3,"CNC(=O)CSc1cccc(C(OC2CCN(C)CC2)c2nc3ccccc3s2)c1 (centres unmarked) [Example 259, 2-{3-[benzothiazol-2-yl(1-methylpiperidin-4-yloxy)methyl]phenylsulfanyl}-N-methylacetamide]"
12,< 0.3,"COc1ccc(-c2cccc(C(NC3CCN(C)CC3)c3nc4ccccc4s3)c2)cc1 (centres unmarked) [Example 211, [benzothiazol-2-yl(4′-methoxybiphenyl-3-yl)methyl](1-methylpiperidin-4-yl)amine]"
13,< 0.03,"Cc1ccccc1COc1cccc(C(NC2CCN(C)CC2)c2nc3ccccc3[nH]2)c1 (centres unmarked) [Example 129, {(1H-benzimidazol-2-yl)[3-(2-methylbenzyloxy)phenyl]methyl}(1-methylpiperidin-4-yl)amine]"
14,< 0.03,CN1CCC(OC(c2nc3cc(F)ccc3[nH]2)c2cc(OC(F)(F)F)ccc2F)CC1 (centres unmarked) [Example 509]
15,< 0.03,CN1CCC(OC(c2cccc(N3CCCC3CN)c2)c2nc3ccccc3s2)CC1 (centres unmarked) [Example 482]
16,< 0.3,"CN1CCC(OC(c2cccc(SCC3(CCO)CC3)c2)c2nc3ccccc3s2)CC1 (centres unmarked) [Example 268, 2-(1-{3-[benzothiazol-2-yl(1-methylpiperidin-4-yloxy)methyl]phenylsulfanylmethyl}cyclopropyl)ethanol]"
17,< 0.03,"CN1CCC(OC(c2cccc(C#CCCCCN)c2)c2nc3ccccc3[nH]2)CC1 (centres unmarked) [Example 337, 6-{3-[(1H-benzimidazol-2-yl)(1-methylpiperidin-4-yloxy)methyl]phenyl}hex-5-ynylamine]"
18,< 0.3,"CCCCc1cccc(C(OC2CCN(C)CC2)c2nc3ccccc3s2)c1 (centres unmarked) [Example 80, 2-[(3-butylphenyl)(1-methylpiperidin-4-yloxy)methyl]benzothiazole]"
19,< 0.03,"CN1CCC(OC(c2cccc(CCCCNC(=N)N)c2)c2nc3ccccc3s2)CC1 (centres unmarked) [Example 374, N-(4-{3-[benzothiazol-2-yl(1-methylpiperidin-4-yloxy)methyl]phenyl}butyl)guanidine]"
20,< 0.03,"CC(C)Oc1cccc(C(NC2CCN(C)CC2)c2nc3ccccc3s2)c1 (centres unmarked) [Example 88, [benzothiazol-2-yl(3-isopropoxyphenyl)methyl](1-methylpiperidin-4-yl)amine]"
21,< 0.03,"CN1CCC(OC(c2cccc(-c3cccc(F)c3)c2)c2nc3ccccc3s2)CC1 (centres unmarked) [Example 139, 2-[(3′-fluorobiphenyl-3-yl)(1-methylpiperidin-4-yloxy)methyl]benzothiazole]"
22,< 0.03,"CN1CCC(NC(c2cccc(OCc3cc(F)ccc3F)c2)c2nc3ccccc3[nH]2)CC1 (centres unmarked) [Example 149, {(1H-benzimidazol-2-yl)[3-(2,5-difluoro-benzyloxy)phenyl]methyl}(1-methylpiperidin-4-yl)amine]"

row,Ki or IC50 activity class [µM],Structure (SMILES)
1,< 1,"CN1CCC(OC(c2cccc(SCCNC3=NCCN3)c2)c2nc3ccccc3[nH]2)CC1 (centres unmarked) [Example 317, (2-{3-[(1H-benzimidazol-2-yl)(1-methylpiperidin-4-yloxy)methyl]-phenylsulfanyl}ethyl)(4,5-dihydro-1H-imidazol-2-yl)amine]"
2,< 0.3,"CN1CCC(OC(c2ccc(Cl)cc2)c2nc3ccccc3[nH]2)CC1 (centres unmarked) [Example 226, 2-[(4-chlorophenyl)(1-methylpiperidin-4-yloxy)methyl]-1H-benzimidazole]"
3,< 0.3,CN1CCC(OC(c2cccc(F)c2)c2nc3ccccc3s2)CC1 (centres unmarked) [Example 5]
4,< 0.3,"CN1CCC(NC(c2cccc(OCC3CCCCC3)c2)c2nc3ccccc3s2)CC1 (centres unmarked) [Example 93, [benzothiazol-2-yl(3-cyclohexylmethoxyphenyl)methyl](1-methylpiperidin-4-yl)amine]"
5,< 0.3,"COCCOc1cccc(C(OC2CCN(C)CC2)c2nc3ccccc3s2)c1 (centres unmarked) [Example 277, 2-[[3-(2-methoxyethoxy)phenyl](1-methylpiperidin-4-yloxy)methyl]benzothiazole]"
6,< 0.3,"CN1CCC(OC(c2cccc(OCC3CCNCC3)c2)c2nc3ccccc3s2)CC1 (centres unmarked) [Example 377, 2-{(1-methylpiperidin-4-yloxy)[3-(piperidin-4-ylmethoxy)phenyl]methyl}benzothiazole]"
7,< 0.03,"CN1CCC(OC(c2ccc(N)cc2)c2nc3ccccc3[nH]2)CC1 (centres unmarked) [Example 455, 4-[(1H-benzimidazol-2-yl)(1-methylpiperidin-4-yloxy)methyl]aniline]"
8,< 0.3,"CN1CCC(OC(c2cccc(-c3cccnc3)c2)c2nc3ccccc3[nH]2)CC1 (centres unmarked) [Example 89, 2-[(1-methylpiperidin-4-yloxy)(3-pyridin-3-ylphenyl)methyl]-1H-benzimidazole]"
9,< 0.3,"CN1CCC(OC(c2cccc(SCCN)c2)c2nc3cc(F)ccc3[nH]2)CC1 (centres unmarked) [Example 428, 2-{3-[(5-fluoro-1H-benzimidazol-2-yl)(1-methylpiperidin-4-yloxy)methyl]phenylsulfanyl}ethylamine]"
10,< 0.3,"CCOCCOc1cccc(C(NC2CCN(C)CC2)c2nc3ccccc3[nH]2)c1 (centres unmarked) [Example 134, {(1H-benzimidazol-2-yl)[3-(2-ethoxyethoxy)phenyl]methyl}(1-methylpiperidin-4-yl)amine]"
11,< 0.3,CN1CCC(OC(c2cccc(N3CCC(O)C3)c2)c2nc3ccccc3[nH]2)CC1 (centres unmarked) [Example 452]
12,< 0.3,"CN1CCC(OC(c2cccc(-c3cccc(N)c3)c2)c2nc3ccccc3s2)CC1 (centres unmarked) [Example 79, 3′-[benzothiazol-2-yl(1-methylpiperidin-4-yloxy)methyl]biphenyl-3-ylamine]"
13,< 0.3,COCCn1c(C(OC2CCN(C)CC2)c2cccc(C#CCCCCN)c2)nc2ccccc21 (centres unmarked) [Example 501]
14,< 0.3,"CN1CCC(NC(c2cccc(Oc3ccccc3)c2)c2nc3ccccc3[nH]2)CC1 (centres unmarked) [Example 85, [(1H-benzimidazol-2-yl)(3-phenoxyphenyl)methyl](1-methylpiperidin-4-yl)amine]"
15,< 0.3,"Cc1ccc(C(NC2CCN(C)CC2)c2nc3ccccc3s2)cc1 (centres unmarked) [Example 36, (benzothiazol-2-yl-p-tolylmethyl)(1-methylpiperidin-4-yl)amine]"
16,< 0.3,CN1CCC(OC(c2cccc(-c3cccc(CO)c3)c2)c2nc3ccccc3s2)CC1 (centres unmarked) [Example 54]
17,< 0.03,"CN1CCC(OC(c2cccc(OCc3ccccc3)c2)c2nc3ccccc3s2)CC1 (centres unmarked) [Example 45, 2-[(3-benzyloxyphenyl)(1-methylpiperidin-4-yloxy)methyl]benzothiazole]"
18,< 0.03,CN1CCC(OC(c2cccc(OC3CCC(N)C3)c2)c2nc3ccccc3s2)CC1 (centres unmarked) [Example 453]
19,< 0.3,"CN1CCC(OC(c2cccc(-c3ccc(F)c(F)c3F)c2)c2nc3ccccc3s2)CC1 (centres unmarked) [Example 141, 2-[(1-methylpiperidin-4-yloxy)(2′,3′,4′-trifluorobiphenyl-3-yl)methyl]benzothiazole]"
20,< 1,"CN1CCC(OC(c2cccc(SCCc3cnccn3)c2)c2nc3ccccc3[nH]2)CC1 (centres unmarked) [Example 232, 2-{(1-methylpiperidin-4-yloxy)[3-(2-pyrazin-2-yl-ethylsulfanyl)phenyl]methyl}-1H-benzimidazole]"
21,< 1,"CN1CCC(OC(c2ccc(Cl)cc2)c2nc3ccccc3s2)CC1 (centres unmarked) [Example 4, 2-[(4-chlorophenyl)(1-methylpiperidin-4-yloxy)methyl]benzothiazole]"

row,Structure (SMILES),Ki or IC50 activity class [µM]
1,"CN1CCC(OC(c2cccc(CCCNC(=O)OC(C)(C)C)c2)c2nc3ccccc3[nH]2)CC1 (centres unmarked) [Example 313, N-tert-butoxycarbonyl-N′-(3-{3-[(1H-benzimidazol-2-yl)(1-methylpiperidin-4-yloxy)methyl]phenyl}propyl)amine]",< 0.3
